The text below walks through data of US8580764B2, “Combinational compositions and methods for treatment of cancer” (ArQule, Inc., priority 2010, dated 2013).

Like-named read-outs stand apart in the source and are kept apart here.

The test system of assay [1] is cancer cells. In words: Cell cycle analysis of dosing regimen A (FIG. 8). It counts as cell-based. The conditions noted are these: dosing regimen A of FIG. 3. How it is done:
(§1) Cells were plated on day 0.

In the next assay the target is T1, c-Met (Homo sapiens, UniProt P08581).
T1 construct: Exposure of c-Met expressing cancer cell lines; endogenous in cells
Particulars: c-Met expressing cancer cell lines; cited from earlier work.

Another assay has as its system human tumors. Particulars: multiple mouse xenograft efficacy studies; cited from earlier work.
For a further assay, the system named is cell cycle check point. The experiment in a line: Activation of cell cycle check point during dosing regimen A (FIG. 9). Particulars: dosing regimen A of FIG. 3. The assay is classed as cell-based. How it is done:
as §1

In assay [2] the test system is cancer cells. Particulars: cited from earlier work.

T1 sequence (P08581 25-1390): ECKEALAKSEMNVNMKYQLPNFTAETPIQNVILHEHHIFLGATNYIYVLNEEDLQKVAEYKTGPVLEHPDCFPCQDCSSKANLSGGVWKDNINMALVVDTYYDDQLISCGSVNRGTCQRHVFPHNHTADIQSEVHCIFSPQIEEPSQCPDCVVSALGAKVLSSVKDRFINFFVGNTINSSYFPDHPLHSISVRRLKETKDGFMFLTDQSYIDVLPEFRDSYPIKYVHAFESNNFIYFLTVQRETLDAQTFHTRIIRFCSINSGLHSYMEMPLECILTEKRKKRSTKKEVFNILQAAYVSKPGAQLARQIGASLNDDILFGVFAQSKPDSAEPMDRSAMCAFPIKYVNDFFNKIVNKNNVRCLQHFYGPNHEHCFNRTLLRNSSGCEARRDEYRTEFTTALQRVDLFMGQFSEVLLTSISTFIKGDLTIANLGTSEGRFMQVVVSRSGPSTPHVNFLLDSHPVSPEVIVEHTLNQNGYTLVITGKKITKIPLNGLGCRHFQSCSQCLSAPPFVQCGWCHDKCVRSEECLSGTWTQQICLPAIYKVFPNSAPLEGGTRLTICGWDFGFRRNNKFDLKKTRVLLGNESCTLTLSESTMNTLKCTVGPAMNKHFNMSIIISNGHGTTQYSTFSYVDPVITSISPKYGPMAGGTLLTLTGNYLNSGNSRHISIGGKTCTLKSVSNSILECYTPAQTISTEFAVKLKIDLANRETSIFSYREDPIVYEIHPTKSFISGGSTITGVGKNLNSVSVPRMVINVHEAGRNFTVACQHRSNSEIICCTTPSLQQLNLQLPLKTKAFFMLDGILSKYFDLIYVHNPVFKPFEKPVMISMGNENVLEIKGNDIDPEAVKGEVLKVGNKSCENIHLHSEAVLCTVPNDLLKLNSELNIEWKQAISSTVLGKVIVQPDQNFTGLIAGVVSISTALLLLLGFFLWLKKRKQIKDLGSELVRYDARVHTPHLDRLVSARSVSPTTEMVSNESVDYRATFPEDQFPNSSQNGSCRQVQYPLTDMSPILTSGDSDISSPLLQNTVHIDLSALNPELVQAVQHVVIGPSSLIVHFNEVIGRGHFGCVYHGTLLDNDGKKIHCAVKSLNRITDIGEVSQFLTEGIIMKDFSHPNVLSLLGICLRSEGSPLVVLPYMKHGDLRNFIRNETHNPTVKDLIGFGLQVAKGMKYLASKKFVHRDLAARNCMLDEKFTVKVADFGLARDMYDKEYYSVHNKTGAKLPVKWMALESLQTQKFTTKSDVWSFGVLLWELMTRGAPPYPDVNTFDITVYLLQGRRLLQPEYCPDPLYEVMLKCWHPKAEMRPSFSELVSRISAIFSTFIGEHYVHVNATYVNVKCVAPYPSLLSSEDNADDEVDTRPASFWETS

For the compound `O=C1NC(=O)[C@@H](c2cn3c4c(cccc24)CCC3)[C@@H]1c1c[nH]c2ccccc12` [Agent A, (−)-trans-3-(5,6-dihydro-4H-pyrrolo[3,2,1-ij]quinolin-1-yl)-4-(1H-indol-3-yl)pyrrolidine-2,5-dione], the cell cycle arrest entry in the assay with cancer cells [1] was “G2/M arrest”. The “phospho-c-Met levels and cell death” value on c-Met was “decrease in phospho-c-Met levels with eventual apoptotic cell death”. Also, in the assay on human tumors, the “growth of human tumors” value is “inhibited the growth of human tumors”.

Regarding `Nc1ccn([C@@H]2O[C@H](CO)[C@@H](O)C2(F)F)c(=O)n1` [gemcitabine], the cell cycle arrest result with cancer cells [1] is “S-phase arrest”; with cancer cells [2], “arrest cancer cells in G1/S phase”. The “activation of cell cycle check point” value with cell cycle check point is “activation of cell cycle check point”.
